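Five compound concentrations were applied to cells in 96-well plates for 48 hours; endpoints were derived by simple linear interpolation of the resulting dose-response curve. GI50: concentration for 50% inhibition of growth.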 Activity calls are given as the source filed them. No stated cut-off is given here; in the data, active = GI50 up to about 1.1 µM and inactive = higher.
Legend:
Experiment in all cases: growth of human tumour cells (NCI), 48 h
DLD-1 = tested on: DLD-1
HOP-18 = tested on: HOP-18
DMS-114 = tested on: DMS-114
LXFL 529 = tested on: LXFL 529
DMS-273 = tested on: DMS-273
M19-MEL = tested on: M19-MEL
KM-20L2 = tested on: KM-20L2
RXF 631 = tested on: RXF 631
XF498 = tested on: XF498

| Compound | GI50 (DLD-1) | GI50 (HOP-18) | GI50 (DMS-114) | GI50 (LXFL 529) | GI50 (DMS-273) | GI50 (M19-MEL) | GI50 (KM-20L2) | GI50 (RXF 631) | GI50 (XF498) |
| --- | --- | --- | --- | --- | --- | --- | --- | --- | --- |
| Cc1nc2cc(Nc3ccccc3C(=O)O)ccc2s1 | > 100 µM (inactive) | 88.9 µM (inactive) | > 100 µM (inactive) | > 100 µM (inactive) | > 100 µM (inactive) | > 100 µM (inactive) | > 100 µM (inactive) | – | – |
| CC(C)(C)C(=O)Nc1cccc2oc(-c3ccccc3)cc12 | > 100 µM (inactive) | > 100 µM (inactive) | > 100 µM (inactive) | 36.3 µM (inactive) | > 100 µM (inactive) | > 100 µM (inactive) | > 100 µM (inactive) | 47 µM (inactive) | – |
| O=C1Nc2ccc(Cl)c(I)c2C1=O | 16.9 µM (inactive) | – | 17.5 µM (inactive) | 16.8 µM (inactive) | 16.5 µM (inactive) | 11.7 µM (inactive) | 19.7 µM (inactive) | – | 18.3 µM (inactive) |
| Cc1ccccc1C(C#N)C(=O)C(=O)Nc1nc([N+](=O)[O-])cs1 (stereo not drawn) | > 100 µM (inactive) | > 100 µM (inactive) | > 100 µM (inactive) | > 100 µM (inactive) | – | > 100 µM (inactive) | > 100 µM (inactive) | > 100 µM (inactive) | > 100 µM (inactive) |
| CSc1nc(NC2OCC(OC(C)=O)C(OC(C)=O)C2OC(C)=O)c(/N=C\C=N\c2c(NC3OCC(OC(C)=O)C(OC(C)=O)C3OC(C)=O)nc(SC)[nH]c2=O)c(=O)[nH]1 (stereo not drawn) | > 100 µM (inactive) | > 100 µM (inactive) | > 100 µM (inactive) | > 83.6 µM (inactive) | > 100 µM (inactive) | > 100 µM (inactive) | > 100 µM (inactive) | 74 µM (inactive) | – |
| O=C(O)CNS(=O)(=O)c1ccc(NC(=O)c2ccccc2[N+](=O)[O-])cc1 | > 100 µM (inactive) | > 100 µM (inactive) | – | > 100 µM (inactive) | > 100 µM (inactive) | > 100 µM (inactive) | > 100 µM (inactive) | – | > 100 µM (inactive) |
| ClC(Cl)=C1C(=C(Cl)Cl)C(Cl)(Cl)C1(Cl)Cl | 1.22 µM (inactive) | 5.9 µM (inactive) | 0.748 µM (active) | 0.938 µM (active) | 2.64 µM (inactive) | 2.72 µM (inactive) | 4.41 µM (inactive) | 3.21 µM (inactive) | 9.2 µM (inactive) |
| O=S1(=O)c2cc(S(=O)(=O)n3ccnc3)ccc2NC2=NCCCN21 | 28.1 µM (inactive) | 42.2 µM (inactive) | 22.1 µM (inactive) | 31.5 µM (inactive) | – | 35.3 µM (inactive) | 22.3 µM (inactive) | – | – |
| Oc1ccc(O)c(-n2cccn2)c1-n1cccn1 | > 100 µM (inactive) | – | > 100 µM (inactive) | > 100 µM (inactive) | > 100 µM (inactive) | 35.8 µM (inactive) | > 100 µM (inactive) | – | > 100 µM (inactive) |
| NC(=S)N/N=C1/CN(c2ccc(Cl)c(Cl)c2)CC(=O)C1c1nc2ccccc2s1 (stereo not drawn) | > 100 µM (inactive) | – | 51.8 µM (inactive) | 37.8 µM (inactive) | > 100 µM (inactive) | > 100 µM (inactive) | > 100 µM (inactive) | – | > 100 µM (inactive) |
| CCN(CC)CCSc1c2ccccc2nc2c(OC)ccc(OC)c12 | 1.99 µM (inactive) | – | 1.63 µM (inactive) | 2.3 µM (inactive) | 5.08 µM (inactive) | 8 µM (inactive) | 3.39 µM (inactive) | 2.93 µM (inactive) | 2.42 µM (inactive) |
| CCOC(=O)C1C2CCC(C2)C1(CCl)C(=O)OCC (stereo not drawn) | – | > 100 µM (inactive) | > 100 µM (inactive) | > 100 µM (inactive) | > 100 µM (inactive) | > 100 µM (inactive) | > 100 µM (inactive) | > 100 µM (inactive) | – |
| COc1ccc(/C=C(\Cl)c2ccc(OC)c(OC)c2)cc1OC | > 100 µM (inactive) | – | > 100 µM (inactive) | > 100 µM (inactive) | > 100 µM (inactive) | > 100 µM (inactive) | > 100 µM (inactive) | – | – |
| CS(=O)(=O)OCCN(CCOS(C)(=O)=O)c1ccc(/C=N/c2ccc3oc(=O)ccc3c2)cc1 | – | – | 0.714 µM (active) | 13.1 µM (inactive) | – | 13.2 µM (inactive) | 2.64 µM (inactive) | – | – |
| CCc1ccccc1NC(=O)CCc1nnc(S)[nH]1 | > 100 µM (inactive) | – | > 100 µM (inactive) | > 100 µM (inactive) | > 100 µM (inactive) | > 100 µM (inactive) | > 100 µM (inactive) | > 100 µM (inactive) | > 100 µM (inactive) |
| CS(=O)(=O)c1ccc(-c2cc(-c3ccc(S(C)(=O)=O)cc3)[n+](-c3cc(-c4ccc(S(C)(=O)=O)cc4)c([O-])c(-c4ccc(S(C)(=O)=O)cc4)c3)c(-c3ccc(S(C)(=O)=O)cc3)c2)cc1 | > 100 µM (inactive) | > 100 µM (inactive) | > 100 µM (inactive) | > 100 µM (inactive) | > 100 µM (inactive) | > 100 µM (inactive) | > 100 µM (inactive) | > 100 µM (inactive) | – |
| C#CCN(N=O)C(=O)ON1C(=O)CCC1=O | > 100 µM (inactive) | > 100 µM (inactive) | > 100 µM (inactive) | > 100 µM (inactive) | > 100 µM (inactive) | > 100 µM (inactive) | > 100 µM (inactive) | – | – |
| CC1=C(C#N)C(=O)CC(c2ccc(Cl)cc2)N(C)N1 (stereo not drawn) | > 100 µM (inactive) | 24.4 µM (inactive) | > 100 µM (inactive) | > 100 µM (inactive) | – | – | – | – | > 100 µM (inactive) |
| FC(F)(F)c1ccccc1/C=N/C12CC3CC(CC(C3)C1)C2 | – | – | > 100 µM (inactive) | – | > 100 µM (inactive) | > 100 µM (inactive) | > 100 µM (inactive) | – | > 100 µM (inactive) |
| O=S(=O)(c1ccccc1)N1N=C2c3ccccc3CCC[C@H]2C1c1ccccc1 (stereo partly drawn) | > 100 µM (inactive) | > 100 µM (inactive) | > 100 µM (inactive) | > 100 µM (inactive) | > 100 µM (inactive) | > 100 µM (inactive) | > 100 µM (inactive) | – | > 100 µM (inactive) |
| N#CC(C#N)=C(C(C#N)C#N)C(C#N)C#N | > 100 µM (inactive) | – | > 100 µM (inactive) | > 100 µM (inactive) | > 100 µM (inactive) | > 100 µM (inactive) | > 100 µM (inactive) | > 100 µM (inactive) | > 100 µM (inactive) |

Reference: ChEMBL document CHEMBL1201862, “PubChem BioAssay data set” (2004)
